Source: ChEMBL document CHEMBL1151757, “Synthesis, radiosynthesis, and biological evaluation of fluorine-18-labeled 2beta-carbo(fluoroalkoxy)-3beta-(3'-((Z)-2-haloethenyl)phenyl)nortropanes: candidate radioligands for in vivo imaging of the serotonin transporter with positron emission tomography” (J Med Chem, 2008)

system: not listed separately; assay: Ratio of drug uptake in pons to cerebellum in anesthetized cynomolgus monkey after 125 mins postinjection; assay type: ADME, organism-based, Macaca fascicularis; conditions: in vivo

Row | Compound | Ratio
1 | O=C(OCC[18F])C1C2CCC(CC1c1ccc(/C=C\I)cc1)N2 (configuration not stated) | 2.1

system: not listed separately; assay: Ratio of drug uptake in medulla to cerebellum in anesthetized cynomolgus monkey after 85 mins postinjection; assay type: ADME, organism-based, Macaca fascicularis; conditions: in vivo

Row | Compound | Ratio
2 | O=C(OCC[18F])C1C2CCC(CC1c1ccc(/C=C\I)cc1)N2 (configuration not stated) | 1.8

system: not listed separately; assay: Drug uptake in anesthetized cynomolgus monkey brain occipital lobe after 215 mins postinjection; assay type: ADME, organism-based, Macaca fascicularis; conditions: in vivo

Row | Compound | Drug uptake
3 | O=C(OCC[18F])C1C2CCC(CC1c1ccc(/C=C\I)cc1)N2 (configuration not stated) | 1.68

system: not listed separately; assay: Drug uptake in anesthetized cynomolgus monkey brain frontal lobe after 2.5 mins postinjection; assay type: ADME, organism-based, Macaca fascicularis; conditions: in vivo

Row | Compound | Drug uptake
4 | O=C(OCC[18F])C1C2CCC(CC1c1ccc(/C=C\I)cc1)N2 (configuration not stated) | 0.24

system: not listed separately; assay: Drug uptake in anesthetized cynomolgus monkey brain frontal lobe after 35 mins postinjection; assay type: ADME, organism-based, Macaca fascicularis; conditions: in vivo

Row | Compound | Drug uptake
5 | O=C(OCC[18F])C1C2CCC(CC1c1ccc(/C=C\I)cc1)N2 (configuration not stated) | 1.86

system: not listed separately; assay: Drug uptake in anesthetized cynomolgus monkey brain frontal lobe after 45 mins postinjection; assay type: ADME, organism-based, Macaca fascicularis; conditions: in vivo, 0.75 h

Row | Compound | Drug uptake
6 | O=C(OCC[18F])C1C2CCC(CC1c1ccc(/C=C\I)cc1)N2 (configuration not stated) | 1.95

system: not listed separately; assay: Ratio of drug uptake in midbrain to cerebellum in anesthetized cynomolgus monkey after 235 mins postinjection; assay type: ADME, organism-based, Macaca fascicularis; conditions: in vivo

Row | Compound | Ratio
7 | O=C(OCC[18F])C1C2CCC(CC1c1ccc(/C=C\I)cc1)N2 (configuration not stated) | 4.4

system: Putamen; assay: Drug uptake in anesthetized cynomolgus monkey brain putamen after 215 mins postinjection; assay type: ADME, organism-based, Macaca fascicularis; conditions: in vivo

Row | Compound | Drug uptake
8 | O=C(OCC[18F])C1C2CCC(CC1c1ccc(/C=C\I)cc1)N2 (configuration not stated) | 3.93

system: not listed separately; assay: Ratio of drug uptake in occipital lobe to cerebellum in anesthetized cynomolgus monkey after 235 mins postinjection; assay type: ADME, organism-based, Macaca fascicularis; conditions: in vivo

Row | Compound | Ratio
9 | O=C(OCC[18F])C1C2CCC(CC1c1ccc(/C=C\I)cc1)N2 (configuration not stated) | 1.6

system: Midbrain; assay: Drug uptake in anesthetized cynomolgus monkey brain midbrain after 145 mins postinjection; assay type: ADME, organism-based, Macaca fascicularis; conditions: in vivo

Row | Compound | Drug uptake
10 | O=C(OCC[18F])C1C2CCC(CC1c1ccc(/C=C\I)cc1)N2 (configuration not stated) | 4.65

system: Midbrain; assay: Drug uptake in anesthetized cynomolgus monkey brain midbrain after 175 mins postinjection; assay type: ADME, organism-based, Macaca fascicularis; conditions: in vivo

Row | Compound | Drug uptake
11 | O=C(OCC[18F])C1C2CCC(CC1c1ccc(/C=C\I)cc1)N2 (configuration not stated) | 4.61

system: Pons; assay: Drug uptake in anesthetized cynomolgus monkey brain pons after 2.5 mins postinjection; assay type: ADME, organism-based, Macaca fascicularis; conditions: in vivo

Row | Compound | Drug uptake
12 | O=C(OCC[18F])C1C2CCC(CC1c1ccc(/C=C\I)cc1)N2 (configuration not stated) | 0.36

system: Pons; assay: Drug uptake in anesthetized cynomolgus monkey brain pons after 22.5 mins postinjection; assay type: ADME, organism-based, Macaca fascicularis; conditions: in vivo, 0.375 h

Row | Compound | Drug uptake
13 | O=C(OCC[18F])C1C2CCC(CC1c1ccc(/C=C\I)cc1)N2 (configuration not stated) | 2.4

system: Pons; assay: Drug uptake in anesthetized cynomolgus monkey brain pons after 35 mins postinjection; assay type: ADME, organism-based, Macaca fascicularis; conditions: in vivo

Row | Compound | Drug uptake
14 | O=C(OCC[18F])C1C2CCC(CC1c1ccc(/C=C\I)cc1)N2 (configuration not stated) | 2.74

system: Pons; assay: Drug uptake in anesthetized cynomolgus monkey brain pons after 55 mins postinjection; assay type: ADME, organism-based, Macaca fascicularis; conditions: in vivo

Row | Compound | Drug uptake
15 | O=C(OCC[18F])C1C2CCC(CC1c1ccc(/C=C\I)cc1)N2 (configuration not stated) | 2.99

system: Pons; assay: Drug uptake in anesthetized cynomolgus monkey brain pons after 205 mins postinjection; assay type: ADME, organism-based, Macaca fascicularis; conditions: in vivo

Row | Compound | Drug uptake
16 | O=C(OCC[18F])C1C2CCC(CC1c1ccc(/C=C\I)cc1)N2 (configuration not stated) | 3.34

system: not listed separately; assay: Drug uptake in anesthetized cynomolgus monkey brain occipital lobe after 205 mins postinjection; assay type: ADME, organism-based, Macaca fascicularis; conditions: in vivo

Row | Compound | Drug uptake
17 | O=C(OCC[18F])C1C2CCC(CC1c1ccc(/C=C\I)cc1)N2 (configuration not stated) | 1.73

system: Putamen; assay: Drug uptake in anesthetized cynomolgus monkey brain putamen after 195 mins postinjection; assay type: ADME, organism-based, Macaca fascicularis; conditions: in vivo, 3.25 h

Row | Compound | Drug uptake
18 | O=C(OCC[18F])C1C2CCC(CC1c1ccc(/C=C\I)cc1)N2 (configuration not stated) | 4.01

system: Medulla; assay: Drug uptake in anesthetized cynomolgus monkey brain medulla after 2.5 mins postinjection; assay type: ADME, organism-based, Macaca fascicularis; conditions: in vivo

Row | Compound | Drug uptake
19 | O=C(OCC[18F])C1C2CCC(CC1c1ccc(/C=C\I)cc1)N2 (configuration not stated) | 0.5

system: Medulla; assay: Drug uptake in anesthetized cynomolgus monkey brain medulla after 15.5 mins postinjection; assay type: ADME, organism-based, Macaca fascicularis; conditions: in vivo

Row | Compound | Drug uptake
20 | O=C(OCC[18F])C1C2CCC(CC1c1ccc(/C=C\I)cc1)N2 (configuration not stated) | 2.67

system: Medulla; assay: Drug uptake in anesthetized cynomolgus monkey brain medulla after 22.5 mins postinjection; assay type: ADME, organism-based, Macaca fascicularis; conditions: in vivo, 0.375 h

Row | Compound | Drug uptake
21 | O=C(OCC[18F])C1C2CCC(CC1c1ccc(/C=C\I)cc1)N2 (configuration not stated) | 3.09

system: Medulla; assay: Drug uptake in anesthetized cynomolgus monkey brain medulla after 45 mins postinjection; assay type: ADME, organism-based, Macaca fascicularis; conditions: in vivo, 0.75 h

Row | Compound | Drug uptake
22 | O=C(OCC[18F])C1C2CCC(CC1c1ccc(/C=C\I)cc1)N2 (configuration not stated) | 3.69
